Assay results published in the NIST ThermoML archive (doi:10.1016/j.jct.2010.11.007).

Experiment: refractive index (Na D-line) (dimensionless); xn = mol fraction of the nth substance listed
Settings: 101 kPa, Liquid, Standard Abbe refractometry

C=CC(C)(O)CCC=C(C)C (stereo not drawn) [3,7-dimethyl-1,6-octadien-3-ol] + CCCO
refractive index
Settings | 283.15 K | 298.15 K | 313.15 K | 328.15 K
x1 = 0.0533 | 1.39881 | 1.39255 | 1.38616 | 1.3796
x1 = 0.1051 | 1.40707 | 1.40075 | 1.39427 | 1.38756
x1 = 0.2014 | 1.41983 | 1.41337 | 1.40675 | 1.39986
x1 = 0.3032 | 1.43049 | – | – | –
x1 = 0.3049 | – | 1.42409 | 1.41728 | 1.41023
x1 = 0.3869 | 1.43761 | 1.43088 | 1.42395 | 1.41687
x1 = 0.4929 | – | – | – | 1.42395
x1 = 0.4951 | 1.44504 | 1.4382 | 1.43113 | –
x1 = 0.5917 | 1.45054 | 1.44367 | 1.43657 | 1.42935
x1 = 0.6895 | 1.45535 | 1.4484 | 1.44114 | 1.4339
x1 = 0.767 | – | – | – | 1.4371
x1 = 0.7765 | 1.45896 | 1.45193 | 1.44473 | –
x1 = 0.8735 | 1.46254 | 1.45549 | 1.44824 | 1.44085
x1 = 0.9296 | 1.46441 | 1.4573 | 1.44997 | 1.44249
x1 = 1 | 1.4666 | 1.45946 | 1.45215 | 1.44473
